Literature values as cited in publication PMC8954523 (Pharmaceutics, 2022).
Converted amounts (≈) assume the structure as drawn.

Legend:
[1] = 298.15 K; cited from earlier work
[2] = ref 31; cited from earlier work

Row | Compound | aqueous solubility [1] | log DCoct/w [2]
1 | CNC(=O)c1ccc(N2C(=S)N(c3cnc(C#N)c(C(F)(F)F)c3)C(=O)C23CCC3)cc1F [apalutamide] | 7.78 µM (≈ 3.71 µg/mL) | 3.90
2 | CNC(=O)c1ccc(N2C(=S)N(c3ccc(C#N)c(C(F)(F)F)c3)C(=O)C2(C)C)cc1F [enzalutamide] | 3.92 µM (≈ 1.82 µg/mL) | 4.02
